Drawing on PubChem BioAssay (NCI), this text covers GI50 and TGI for six molecules.

Some test systems named below: HCC-2998 colon; HL-60(TB) leukemia; SNB-75 CNS; EKVX NSCLC; NCI-H460 lung; OVCAR-5 ovarian; MDA-MB-231 breast; SK-MEL-28 melanoma; NCI-H23 lung; SK-MEL-5 melanoma.
Common to all, as to assay: NCI anticancer screen, dose series, 48 h

Molecules are shown by their SMILES. Where “and” joins values, the source holds several entries; their conditions need not be identical. Identical values can stand only once.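 Tested at 5 concentrations; 48 h exposure; 96-well plates; endpoints linearly interpolated, else capped at highest concentration. The concentration for 50% growth inhibition is given as GI50. Definition used: TGI = concentration required for complete inhibition of growth.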 Where only a bound is given, the exact number is not on record here.

For the molecule `Nc1n[nH]c2ccc([C@H]3[C@@H]4C5CCC(C5)[C@@H]4c4c(ccc5[nH]ncc45)N3S(=O)(=O)C3CC3)cc12` (stereo partly specified), the GI50 with HCC-2998 colon was 0.199 µM; in the experiment on HL-60(TB) leukemia, 0.12 µM; in the experiment on SNB-75 CNS, 0.138 µM; in the experiment on EKVX NSCLC it was 0.264 µM; with NCI-H460 lung, 0.181 µM; in the experiment with OVCAR-5 ovarian, 0.272 µM. The GI50 in the experiment on MDA-MB-231 breast was 0.322 µM; in the experiment with SK-MEL-28 melanoma, 2 µM; in the experiment with NCI-H23 lung, 0.225 µM; in the experiment on SK-MEL-5 melanoma, 0.251 µM. Moreover, the TGI in the experiment on HCC-2998 colon is 8.42 µM; with HL-60(TB) leukemia it was 0.996 µM; in the experiment with SNB-75 CNS it was 2.42 µM; in the experiment on EKVX NSCLC, above 45.4 µM; in the experiment with NCI-H460 lung, 8.38 µM; with OVCAR-5 ovarian it was 26.1 µM. The TGI in the experiment with MDA-MB-231 breast was 12.4 µM; with SK-MEL-28 melanoma it was 26 µM; with NCI-H23 lung it was 9.31 µM; in the experiment on SK-MEL-5 melanoma, 1.29 µM.

Consider `COc1ncnn2ccc(-c3cnc4nc(C)n(Cc5nnc(C(C)F)o5)c4c3)c12` (stereo unspecified), for which the GI50 is 0.308 µM in the experiment with HCC-2998 colon; 0.367 µM with HL-60(TB) leukemia; 0.191 µM with SNB-75 CNS; 0.272 µM in the experiment on EKVX NSCLC; 0.242 µM in the experiment with NCI-H460 lung; 0.343 µM in the experiment on OVCAR-5 ovarian. Further, the figures for the GI50 in the experiment on MDA-MB-231 breast, with SK-MEL-28 melanoma and in the experiment with NCI-H23 lung were 0.278 µM, 0.298 µM and 0.109 µM, respectively. Also, the TGI in the experiment with HCC-2998 colon was 2.71 µM; in the experiment on SNB-75 CNS, 1.75 µM; in the experiment on EKVX NSCLC, above 36.4 µM; in the experiment with NCI-H460 lung, above 100 µM; in the experiment with MDA-MB-231 breast, 27 µM; with SK-MEL-28 melanoma, 13.8 µM. The same molecule registered a TGI in the experiment on NCI-H23 lung of 0.597 µM.

Turning to `COc1cccc(Nc2ncnn3ccc(CN4CC[C@@H](N)[C@H](O)C4)c23)c1`, the GI50 with HCC-2998 colon was 15.6 µM and > 3.65 µM; with HL-60(TB) leukemia, 20.3 µM and > 4.71 µM; in the experiment with SNB-75 CNS, 0.102 µM and 0.043 µM; in the experiment on EKVX NSCLC, 0.0275 µM and 0.0282 µM; in the experiment on NCI-H460 lung, 18.5 µM and > 4.66 µM; in the experiment with OVCAR-5 ovarian, 0.467 µM and 0.357 µM. Further, the GI50 in the experiment with MDA-MB-231 breast was 2.3 µM and 1.54 µM; in the experiment with SK-MEL-28 melanoma it was 17 µM and > 5.4 µM; in the experiment with NCI-H23 lung, 2.53 µM and 3.05 µM; with SK-MEL-5 melanoma, 14.5 µM and > 5.6 µM. The TGI in the experiment with HCC-2998 colon is 36.1 µM and > 9.59 µM; in the experiment on HL-60(TB) leukemia, 41.1 µM and > 8.1 µM; in the experiment on SNB-75 CNS it was 0.808 µM and 0.49 µM; in the experiment on EKVX NSCLC, above 100 µM; with NCI-H460 lung, 68.1 µM and > 9.16 µM; with OVCAR-5 ovarian, 32.5 µM and > 10 µM. Moreover, the TGI in the experiment on MDA-MB-231 breast was 25.9 µM and > 10 µM; with SK-MEL-28 melanoma, 31.1 µM and > 10 µM; with NCI-H23 lung, 18.4 µM and > 10 µM; with SK-MEL-5 melanoma, 27.8 µM and > 10 µM.

With `COc1ccc2c(c1)OC(N)=C(C#N)C2c1ccc(F)c(F)c1` (stereo unspecified), the GI50 with HCC-2998 colon was 2.5 µM; in the experiment with HL-60(TB) leukemia, 0.272 µM; with SNB-75 CNS, 0.186 µM; in the experiment on EKVX NSCLC, 0.751 µM; in the experiment with NCI-H460 lung it was 0.41 µM; with OVCAR-5 ovarian, 2.84 µM. Besides, the GI50 with MDA-MB-231 breast is 1.33 µM; in the experiment on SK-MEL-28 melanoma, 3.43 µM; in the experiment on NCI-H23 lung it was 1.15 µM; in the experiment on SK-MEL-5 melanoma, 0.415 µM. Moreover, the TGI is above 44.9 µM with HCC-2998 colon; 0.716 µM with HL-60(TB) leukemia; 4.87 µM with SNB-75 CNS; above 100 µM in the experiment on EKVX NSCLC; 41.6 µM in the experiment on NCI-H460 lung; above 100 µM in the experiment with OVCAR-5 ovarian. Also, the TGI in the experiment on MDA-MB-231 breast is 62.1 µM; with SK-MEL-28 melanoma, above 100 µM; with NCI-H23 lung it was above 100 µM; in the experiment on SK-MEL-5 melanoma it was 29.7 µM.

For the molecule `COc1c(O)cc2c(c1CC=C(C)C)OC(=O)c1c(cc(O)c(CC=C(C)C)c1O)O2`, the GI50 in the experiment on HCC-2998 colon was 2.56 µM; with HL-60(TB) leukemia, 5.76 µM; in the experiment on SNB-75 CNS, 3.09 µM; in the experiment with EKVX NSCLC, 4.67 µM; in the experiment on NCI-H460 lung, 3.69 µM; in the experiment with OVCAR-5 ovarian it was 3.89 µM. The GI50 with MDA-MB-231 breast was 4.23 µM; in the experiment with SK-MEL-28 melanoma, 4.76 µM; in the experiment with NCI-H23 lung, 3.45 µM; in the experiment with SK-MEL-5 melanoma it was 4.24 µM. Also, the TGI in the experiment on HCC-2998 colon was 5.72 µM; with HL-60(TB) leukemia, 15.4 µM; in the experiment with SNB-75 CNS, 6.45 µM; in the experiment with EKVX NSCLC, 8.74 µM; in the experiment on NCI-H460 lung it was 7.29 µM; with OVCAR-5 ovarian, 7.85 µM. Besides, the TGI is 8.46 µM with MDA-MB-231 breast, 9.52 µM in the experiment on SK-MEL-28 melanoma, 8.29 µM with NCI-H23 lung and 7.91 µM in the experiment with SK-MEL-5 melanoma.

Consider `O=C(/C=C/c1cccnc1)c1ccccc1`, for which the GI50 in the experiment with HCC-2998 colon was 14.9 µM; in the experiment on HL-60(TB) leukemia it was 7.02 µM; with SNB-75 CNS, 15.6 µM; with EKVX NSCLC it was 14.1 µM; in the experiment on NCI-H460 lung, 7.07 µM; in the experiment on OVCAR-5 ovarian it was 14.7 µM. The GI50 in the experiment on MDA-MB-231 breast is 12.9 µM; in the experiment on SK-MEL-28 melanoma, 13.1 µM; in the experiment with NCI-H23 lung, 17.3 µM; in the experiment with SK-MEL-5 melanoma, 14.3 µM. The TGI with HCC-2998 colon was found to be 29.1 µM; in the experiment on HL-60(TB) leukemia, 28.8 µM; with SNB-75 CNS it was 34.6 µM; in the experiment on EKVX NSCLC it was 27.7 µM; in the experiment on NCI-H460 lung, 21.2 µM; in the experiment on OVCAR-5 ovarian, 33.3 µM. In addition, the TGI turned out to be 28.3 µM in the experiment on MDA-MB-231 breast, 25.8 µM with SK-MEL-28 melanoma, 39.5 µM in the experiment with NCI-H23 lung and 27.5 µM with SK-MEL-5 melanoma.
